Assay results reported in the NIST ThermoML archive (doi:10.1016/j.jct.2015.01.014).
± gives the expanded uncertainty stated by the source.

Conditions: Liquid, Transpiration method

For `OCCCO` [propan-1,3-diol], the “vapor or sublimation pressure” value (292.5 K) was 0.00167 ± 0.00012 kPa, the “vapor or sublimation pressure” value (296.4 K) was 0.00239 ± 0.00015 kPa and the “vapor or sublimation pressure” value (300.4 K) was 0.00346 ± 0.00023 kPa. The “vapor or sublimation pressure” value (306.3 K) was 0.00584 ± 0.00041 kPa, the “vapor or sublimation pressure” value (338.7 K) was 0.08145 ± 0.0052 kPa and the “vapor or sublimation pressure” value (344.3 K) was 0.1208 ± 0.0077 kPa. For the same compound, the “vapor or sublimation pressure” value (346.4 K) was 0.139 ± 0.0087 kPa.
